Source: patent US9932300B2, “N,N′-diarylurea compounds and N,N′-diarylthiourea compounds as inhibitors of translation initiation” (President and Fellows of Harvard College, priority 2009, dated 2018)

System: eIF2-GTP-Met-tRNAi ternary complex
Test: Ternary complex assay (dual luciferase, firefly/renilla ratio) in stable KLN-tTA/pBISA-DL(ATF-4) cells; HTS and hit confirmation
Format: cell-based, mouse
Parameters: Activity 10 uM / Activity 2.5 uM / Activity 5 uM: unit not given here
Conditions: confirmed hits of the screen (Table 5); for Activity 2.5 uM: compound at 2.5 uM; for Activity 10 uM: compound at 10 uM; for Activity 5 uM: compound at 5 uM

| SMILES | Activity 2.5 uM | Activity 10 uM | Activity 5 uM |
| --- | --- | --- | --- |
| CC(=O)Nc1cccc(/C=C/C=C/c2ccc([N+](=O)[O-])cc2)c1 [Compound 161089] | 1.67 | 3.53 | – |
| CCCN(/C=C/C=C/C=[N+](CCC)CCC)CCC.[O-][Cl+3]([O-])([O-])[O-] [Compound 161504] | – | 5.3 | 2.6 |
| C=C1N(c2cc3ccccc3o2)C(=O)OC12CCCCC2 [Compound 162375] | 1.7 | 3.07 | – |
| Cc1ccc2nc(-c3ccccc3N)[nH]c2c1 [Compound 163454] | – | 3.5 | 2.2 |
| Cl.c1ccc2c(c1)Cn1c-2nc2ccccc21 [Compound 163482] | 1.588 | 3.207 | – |
| O=C1c2ccccc2-c2nc3cc4ccccc4cc3nc21 [Compound 163547] | 3.27 | 4.38 | – |
| [Hg+][c]1ccccc1.[O-]B(O)O [Compound 163948] | 5.67 | – | – |
| CCc1ccc(NC(=O)Nc2cccc(Cl)c2)cc1 [Compound 164212] | 2.04 | 4.07 | – |
| Cc1cccnc1.Cc1cccnc1.Cc1cccnc1.Cc1cccnc1.[Cl-].[Cl][Rh-][Cl] [Compound 165688] | – | 14.6965 | 17.91 |
| Clc1ccc(Cl)c(NNc2cc(Cl)ccc2Cl)c1 [Compound 165765] | 1.34 | 4.44 | – |
| C(=C(\C[P+](c1ccccc1)(c1ccccc1)c1ccccc1)c1ccccc1)/c1ccccc1 [Compound 167334] | – | 12.373 | 11.387 |
| Oc1ccc2ccccc2c1/C=N/Nc1ccc2ccccc2n1 [Compound 168465] | – | 6 | 2.2 |
| N#Cc1c(F)c(F)c(Oc2c(F)c(F)c(F)c(F)c2F)c(F)c1Oc1c(F)c(F)c(F)c(F)c1F [Compound 168745] | 0.39 | 36.37 | – |
| NNC(=S)N/N=C/c1ccc([N+](=O)[O-])s1 [Compound 170334] | 0.98 | 4.45 | – |
| N#CC(C#N)=C/C=C/C=C/c1c(Cl)cccc1Cl [Compound 170444] | 0.66 | 12.56 | – |
| CC(C)c1ccc(N=Nc2ccc(N(C)C)cc2)cc1 [Compound 170582] | 3.72 | 4.44 | – |
| CN(C)c1ccc(N=Nc2ccc(Cl)c(Cl)c2)cc1 [Compound 170589] | 3.81 | 6.57 | – |
| CN(C)c1ccc(N=Nc2ccncc2)cc1 [Compound 170600] | 2.21 | 3.46 | – |
| c1ccc(N=Nc2n[nH]c3ccccc23)cc1 [Compound 170633] | 5.12 | 8.99 | – |
| Cc1cnccc1N=Nc1ccc(N(C)C)cc1 [Compound 170639] | 3.93 | 5.38 | – |
| Nc1cccc2scnc12 [Compound 170680] | – | 6.8 | 2.7 |
| Oc1cccc(C2=NNC(c3cccc(O)c3)=NN2)c1 [Compound 171129] | 5.1 | 7.98 | – |
| Oc1ccc(-c2nnc(-c3ccccc3)nn2)cc1 [Compound 171134] | 2.89 | 3.68 | – |
| COC1/C=C/OC2(C)Oc3c(C)c(O)c4c(O)c(c(C=NN5CCCCCCCC5)c(O)c4c3C2=O)NC(=O)/C(C)=C/C=C/C(C)C(O)C(C)C(O)C(C)C(OC(C)=O)C1C (stereo not drawn) [Compound 172656] | – | 3.9 | 1.6 |
| O=C(Nc1cccc(Cl)c1)NC1CCC(CC2CCCCC2)CC1.O=C(Nc1cccc(Cl)c1)NC1CCC(CC2CCCCC2)CC1 (stereo not drawn) [Compound 172879] | 1.11 | 3.6 | – |
| CC(C)(C)C1CCC(NC(=O)C(Cl)Cl)CC1.CC(C)(C)C1CCC(NC(=O)C(Cl)Cl)CC1 (stereo not drawn) [Compound 173000] | 0.61 | 3.68 | – |
